Experimental data published in ChEMBL document CHEMBL1201862, “PubChem BioAssay data set” (2004).
Activity calls are given as the source filed them.

Legend:
[1] = target: Cytochrome P450 3A4 (Homo sapiens, UniProt P08684);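 also: CYP3A4 tested as one member of a cytochrome P450 panel screen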
[2] = target: Cytochrome P450 2C19 (Homo sapiens, UniProt P33261); experiment: Cytochrome panel assay with activity outcomes. Panel member name: p450-cyp2c19 Compounds with AC50 equal or less than 10 uM are considered active; assay type: functional
[3] = target: T1, Cytochrome P450 1A2 (Homo sapiens, UniProt P05177);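 also: PubChem cytochrome P450 panel assay, CYP1A2 panel member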
T1 sequence (P05177 whole entry): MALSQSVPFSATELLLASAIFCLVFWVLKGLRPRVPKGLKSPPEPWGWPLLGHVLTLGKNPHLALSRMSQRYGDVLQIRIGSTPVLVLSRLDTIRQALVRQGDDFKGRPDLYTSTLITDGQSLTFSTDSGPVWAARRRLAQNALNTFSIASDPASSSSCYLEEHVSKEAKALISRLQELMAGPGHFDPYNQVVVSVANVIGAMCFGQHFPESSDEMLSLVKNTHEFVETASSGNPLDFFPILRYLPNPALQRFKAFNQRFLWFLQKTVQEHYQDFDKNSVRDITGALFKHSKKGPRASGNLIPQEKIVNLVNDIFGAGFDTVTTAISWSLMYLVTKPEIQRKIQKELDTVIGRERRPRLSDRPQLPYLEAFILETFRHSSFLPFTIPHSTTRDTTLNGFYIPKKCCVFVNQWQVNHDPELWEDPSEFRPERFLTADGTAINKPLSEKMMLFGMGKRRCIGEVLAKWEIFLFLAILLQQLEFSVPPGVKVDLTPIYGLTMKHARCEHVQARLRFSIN

[4] = target: T2, Rac GTPase-activating protein 1 (Homo sapiens, UniProt Q9H0H5); experiment: blockers of MgcRacGAP-driven Rac1 GTP hydrolysis – biochemical, ADP Hunter fluorescence, primary and confirmatory, confirmation (AID 624330); assay type: functional
T2 sequence (Q9H0H5 whole entry): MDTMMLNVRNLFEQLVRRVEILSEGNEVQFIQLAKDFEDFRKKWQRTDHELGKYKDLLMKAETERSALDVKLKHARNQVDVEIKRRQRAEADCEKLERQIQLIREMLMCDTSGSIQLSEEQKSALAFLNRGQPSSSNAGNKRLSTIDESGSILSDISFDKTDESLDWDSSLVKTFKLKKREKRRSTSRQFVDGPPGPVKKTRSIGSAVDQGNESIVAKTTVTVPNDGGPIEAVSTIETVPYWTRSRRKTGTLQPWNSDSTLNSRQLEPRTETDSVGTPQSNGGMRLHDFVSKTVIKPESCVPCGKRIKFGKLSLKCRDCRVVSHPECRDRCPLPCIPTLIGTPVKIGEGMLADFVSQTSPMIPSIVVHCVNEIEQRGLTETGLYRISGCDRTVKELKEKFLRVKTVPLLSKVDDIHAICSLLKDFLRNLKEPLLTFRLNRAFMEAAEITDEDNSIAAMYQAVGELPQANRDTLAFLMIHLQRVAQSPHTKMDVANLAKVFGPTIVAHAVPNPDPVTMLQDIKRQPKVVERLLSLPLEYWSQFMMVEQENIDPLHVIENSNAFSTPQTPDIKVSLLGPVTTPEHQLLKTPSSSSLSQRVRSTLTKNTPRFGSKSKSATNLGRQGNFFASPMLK

[5] = Luminescence Cell-Based Dose Retest to Confirm Inhibitors of Cancer Stem Cells. [Related pubchem assays (depositor defined):AID2717, AID2721]; assay type: functional; conditions: Homo sapiens
[6] = NIH3T3 cell viability loss – ATP luminescence, mouse fibroblasts, counter-screen, dose response (AID 2010); assay type: functional, cell-based;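 also: cells exposed to compound for about 90 hours before reading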
[7] = Trypanosoma cruzi growth suppression in host cells – NIH3T3 host cells, beta-gal luminescence, confirmation (AID 2044); assay type: functional, cell-based;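 also: intracellular parasites grown in NIH/3T3 mouse fibroblasts as host cells; luminescent beta-galactosidase reporter signal from transgenic T. cruzi replicating inside host cells; inhibitors lower the luminescence signal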
[8] = target: Cytochrome P450 2C9 (Homo sapiens, UniProt P11712)
[9] = system: Streptococcus; experiment: GAS UMAA2166 growth inhibition – luminescence, BacTiterGlo, counter-screen for streptokinase expression inhibitor project, dose response (AID 1915); assay type: functional, organism-based; conditions: read-out: EC50;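 also: potency for reduction of bacterial viability or growth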
[10] = system: Streptococcus sp. 'group A'; experiment: Streptococcus pyogenes SK(-)GAS viability under kanamycin – luminescence, BacTiterGlo, confirmation, counter-screen for streptokinase expression inhibitor project, dose response (AID 1900); assay type: functional, organism-based

Cytochrome P450 3A4, sequence (P08684 whole entry): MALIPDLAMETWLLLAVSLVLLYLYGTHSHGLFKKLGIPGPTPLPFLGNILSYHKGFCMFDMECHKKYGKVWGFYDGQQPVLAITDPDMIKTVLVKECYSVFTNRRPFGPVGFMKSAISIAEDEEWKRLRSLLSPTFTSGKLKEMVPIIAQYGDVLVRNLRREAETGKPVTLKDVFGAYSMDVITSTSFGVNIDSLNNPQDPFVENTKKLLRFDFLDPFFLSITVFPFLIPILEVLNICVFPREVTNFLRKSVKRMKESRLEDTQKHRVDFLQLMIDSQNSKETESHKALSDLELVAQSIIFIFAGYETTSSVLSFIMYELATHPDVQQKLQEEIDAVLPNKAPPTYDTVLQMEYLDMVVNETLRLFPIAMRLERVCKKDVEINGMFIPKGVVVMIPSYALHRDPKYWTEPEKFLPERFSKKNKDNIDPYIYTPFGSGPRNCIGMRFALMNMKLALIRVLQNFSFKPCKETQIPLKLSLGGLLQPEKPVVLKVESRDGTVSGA
Cytochrome P450 2C19, sequence (P33261 whole entry): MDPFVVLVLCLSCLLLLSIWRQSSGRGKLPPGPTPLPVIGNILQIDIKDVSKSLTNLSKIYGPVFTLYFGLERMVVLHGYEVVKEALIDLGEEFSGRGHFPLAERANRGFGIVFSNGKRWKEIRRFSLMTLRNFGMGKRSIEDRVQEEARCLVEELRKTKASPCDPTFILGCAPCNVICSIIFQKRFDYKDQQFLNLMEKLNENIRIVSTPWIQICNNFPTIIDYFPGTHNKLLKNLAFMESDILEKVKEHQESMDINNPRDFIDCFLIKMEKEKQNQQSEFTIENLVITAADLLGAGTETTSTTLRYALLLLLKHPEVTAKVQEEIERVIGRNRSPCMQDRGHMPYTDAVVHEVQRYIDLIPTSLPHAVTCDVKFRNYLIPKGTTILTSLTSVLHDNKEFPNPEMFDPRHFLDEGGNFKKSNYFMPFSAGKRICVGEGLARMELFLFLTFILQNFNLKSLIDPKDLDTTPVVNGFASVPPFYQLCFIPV
Cytochrome P450 2C9, sequence (P11712 whole entry): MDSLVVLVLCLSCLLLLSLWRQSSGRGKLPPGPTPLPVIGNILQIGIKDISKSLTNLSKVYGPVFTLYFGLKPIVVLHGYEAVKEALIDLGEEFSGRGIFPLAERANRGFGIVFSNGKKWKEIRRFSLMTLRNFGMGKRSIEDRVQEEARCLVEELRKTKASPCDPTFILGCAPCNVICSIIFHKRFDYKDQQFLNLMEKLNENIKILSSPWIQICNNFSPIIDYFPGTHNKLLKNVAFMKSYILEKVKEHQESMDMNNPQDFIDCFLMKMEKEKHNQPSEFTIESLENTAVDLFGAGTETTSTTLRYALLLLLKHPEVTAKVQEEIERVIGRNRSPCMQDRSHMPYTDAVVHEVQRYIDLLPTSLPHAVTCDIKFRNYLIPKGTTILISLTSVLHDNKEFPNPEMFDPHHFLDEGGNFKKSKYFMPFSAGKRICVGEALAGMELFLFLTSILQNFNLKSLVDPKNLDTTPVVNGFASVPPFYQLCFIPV

With CC(=O)Nc1ccc(Nc2ncnc3c2cnn3-c2ccccc2)cc1 the AC50 [1] was 35.5 µM (inconclusive).

In the case of CC(=O)Nc1cc(C(F)(F)F)ccc1Oc1cccc(Br)c1, the AC50 [1] is reported as 12.6 µM (inconclusive) and the AC50 ([2]; read-out: AC50) is reported as 0.316 µM (inconclusive).

For CN(CCC(=O)O)S(=O)(=O)c1ccccc1, the AC50 [3] was 3.16 µM (inconclusive).

In the case of COc1ccc(NC2CCCN(C(=O)c3ccc(CSC)o3)C2)cc1OC (centres undefined), the IC50 [4] is reported as 109 µM (active).

For Nc1c(C(O)(C(F)(F)F)C(F)(F)F)cc(C(O)(C(F)(F)F)C(F)(F)F)c2ccccc12, the AC50 [5] was 2.46 µM (active).

With OC(CN1CCN(c2ccccn2)CC1)Cn1c2ccc(Cl)cc2c2cc(Cl)ccc21 (centres undefined) the AC50 [5] was 3.21 µM (active).

For O=C1CN(c2nc(-c3ccccc3)c3cc(Br)ccc3n2)c2ccccc2N1, the AC50 [1] was 7.08 µM (inconclusive).

With CC(=O)Nc1ccc(S(=O)(=O)c2ccc([N+](=O)[O-])cc2)cc1 the EC50 [6] was > 60 µM (not active) and the EC50 [7] was 0.661 µM (active).

In the case of O=C(NCC(c1ccco1)N1CCCC1)c1ccccc1Sc1ccc(C(F)(F)F)cc1[N+](=O)[O-] (centres undefined), the EC50 [6] is reported as > 60 µM (not active) and the EC50 [7] is reported as 1.64 µM (active).

With COc1ccc(Oc2ncc3ncc(=O)n(C4CC4)c3n2)cc1 the AC50 [8] was 25.1 µM (inconclusive), the AC50 [1] was 25.1 µM (inconclusive) and the AC50 ([2]; read-out: AC50) was 0.316 µM (inconclusive).

For O=[N+]([O-])c1ccc(CNCCc2ccccc2)cc1, the EC50 [6] was > 60 µM (not active) and the EC50 [7] was 0.528 µM (active).

In the case of CCCCN1CSC(=S)N(Cc2ccccc2)C1, the AC50 [8] is reported as 7.94 µM (inconclusive) and the AC50 [1] is reported as 3.16 µM (inconclusive).

For O=c1c2c(-c3ccc(Cl)cc3)csc2nc2n1CCC2, the AC50 [1] was 12.6 µM (inconclusive).

In the case of CCCC/C=C/C(NC(=O)c1ccc(C(F)(F)F)cc1)c1ccccc1 (centres undefined), the AC50 [1] is reported as 10 µM (inconclusive).

For Oc1cc(C(F)(F)F)nc2c(OC(F)(F)F)cccc12, the AC50 [5] was 22.4 µM (active).

With N#Cc1ccccc1S(=O)(=O)N1CCN(C(=O)Cc2coc3cc(O)ccc23)CC1 the IC50 [4] was 32.6 µM (active).

With O=C(O)/C(=C\c1ccncc1)c1cccc2ccccc12 the AC50 [8] was 3.16 µM (inconclusive).

For CC(=O)Nc1ccc(OCC(O)CN2CCN(c3ccc(C)c(Cl)c3)CC2)cc1 (centres undefined), the AC50 [5] was 7.01 µM (active).

With O=C(Nc1ccccc1C(=O)NCC1CCCO1)c1ccc(Cl)cc1Cl (centres undefined) the AC50 [1] was 4.47 µM (inconclusive).

With CCOC(=O)c1c(O)nc(O)c(CC)c1C the AC50 ([2]; read-out: AC50) was 2.51 µM (inconclusive).

With Cc1ccc(S(=O)(=O)CCCS(=O)(=O)c2ccc(C)cc2)cc1 the AC50 [8] was 5.01 µM (inconclusive).

In the case of O=C(Nc1cccc2ccccc12)c1ccc([N+](=O)[O-])s1, the EC50 [6] is reported as > 60 µM (not active) and the EC50 [7] is reported as 0.407 µM (active).

With COCCn1c(=S)[nH]c2cc(C(=O)NC(C)C)ccc2c1=O the AC50 [3] was 3.16 µM (inconclusive).

For NC(S)=Nc1cc2ccccc2c2ccccc12, the AC50 [8] was 0.282 µM (inconclusive).

With O=C(c1ccco1)N1CCN(C(=O)C2(S(=O)(=O)c3ccc(Cl)cc3)CC2)CC1 the AC50 [8] was 17.8 µM (inconclusive), the AC50 [1] was 25.1 µM (inconclusive) and the AC50 ([2]; read-out: AC50) was 28.2 µM (inconclusive).

With Cc1ccc(C(=O)C(OC(=O)CCC(=O)Nc2cccc(C)c2)c2ccccc2)cc1 (centres undefined) the AC50 [3] was 17.8 µM (inconclusive).

With COc1ccc(-n2nc3cc(C)c(NC(=S)NC(=O)c4ccccc4C)cc3n2)cc1 the AC50 [8] was 6.31 µM (inconclusive).

In the case of CC(C)c1nc2sc3ccccc3c(=O)c2c(=O)n1Cc1ccccc1, the AC50 [5] is reported as 0.796 µM (active).

In the case of COc1ccc(NC(=O)N2CC3(CCN(S(=O)(=O)c4ccccc4)CC3)C2)cc1, the AC50 [1] is reported as 15.8 µM (inconclusive).

For c1cncc(CNc2nc(-c3ccc4c(c3)OCO4)nc3ccccc23)c1, the AC50 [8] was 0.398 µM (inconclusive).

For CC(=O)[C@@H]1CC[C@@H]2[C@@H]3C[C@H](C)C4=CC(=O)CC[C@@]4(C)[C@H]3[C@H](O)C[C@]21C, the AC50 [1] was 7.94 µM (inconclusive).

With CN(C)CCCNCC(=O)c1c(-c2ccccc2)n(C)c2ccccc12 the IC50 [4] was 94.7 µM (active).

In the case of O=c1[nH]c2ccccc2n2c(S)nnc12, the IC50 [4] is reported as 109 µM (active).

For Fc1ccccc1Cc1noc(CN2CCN(Cc3ccc4c(c3)OCO4)CC2)n1, the EC50 [6] was > 60 µM (not active) and the EC50 [7] was 1.03 µM (active).

For COC(=O)C(C)(C(=O)OC)c1ccc([N+](=O)[O-])cn1, the AC50 ([2]; read-out: AC50) was 39.8 µM (inconclusive).

In the case of Cc1ccc(NC(=O)CCC(=O)c2ccc(F)cc2)cc1Cl, the AC50 [8] is reported as 0.891 µM (inconclusive).

In the case of Cc1cc2ccc(OC(=O)c3ccc(NC(=N)N)cc3)cc2oc1=O, the AC50 [3] is reported as 2.51 µM (inconclusive).

With O=C(CCS(=O)(=O)c1cccc2nsnc12)NC1CCCCC1 the AC50 [3] was 25.1 µM (inconclusive).

In the case of Fc1ccc(N2CCN(c3ncnc4c3nnn4Cc3ccccc3Cl)CC2)cc1, the EC50 [6] is reported as > 60 µM (inconclusive) and the EC50 [7] is reported as 2.46 µM (active).

For CCOc1ccccc1NC(=O)C(=O)NCC1CCCN1CC (centres undefined), the AC50 [3] was 15.8 µM (inconclusive).

For CCN(CC)c1ccc(NC(=O)COC(=O)Cc2ccsc2)cc1, the IC50 [4] was 38 µM (active).

For CCNc1ncc2nc(-c3ccccc3)c(=O)n(Cc3cccc(OC)c3)c2n1, the AC50 ([2]; read-out: AC50) was 39.8 µM (inconclusive).

For CC(C)CC(=O)Nc1sc2c(c1C#N)CC(C)(C)NC2(C)C, the AC50 [1] was 14.1 µM (inconclusive) and the AC50 ([2]; read-out: AC50) was 28.2 µM (inconclusive).

For O=C(Nc1ccccc1)N1CCCC2(CCN(C(=O)c3cnccn3)CC2)C1, the AC50 [1] was 25.1 µM (inconclusive).

With Cc1ccc(CNC(=O)CCC2CCCN(Cc3cccc4ncccc34)C2)o1 (centres undefined) the EC50 [6] was > 60 µM (inconclusive) and the EC50 [7] was 0.193 µM (active).

For COc1ccc(Cc2nnc(NC(=O)c3cccc([N+](=O)[O-])c3C)s2)cc1, the AC50 [8] was 0.794 µM (inconclusive).

With CCCCNC(=O)C1C2C=CC3(CN(Cc4ccccc4Cl)C(=O)C13)O2 (centres undefined) the AC50 [8] was 17.8 µM (inconclusive).

For Cc1cc(N(CN2CCCC2=O)C(=O)c2ccc(F)cc2)no1, the AC50 [1] was 3.98 µM (inconclusive).

In the case of Cn1c(=O)[nH]c(N)c(Br)c1=O, the IC50 [4] is reported as 84.3 µM (active).

With O=C1CSC(=S)N1Nc1ccccc1 the IC50 [4] was 54 µM (active).

For C/C(=N\NC(=O)c1cc2ccccc2cc1O)c1cc2ccccc2o1, the EC50 [9] was 4.11 µM (active) and the EC50 [10] was 1.77 µM (active).

For Cc1ccc(-c2nc(C(=O)NCCCN3CCOCC3)cc3c2[nH]c2ccccc23)cc1, the EC50 [6] was > 30 µM (not active) and the EC50 [7] was 1.36 µM (active).

In the case of Cc1cccc(C(=O)N/N=C/c2ccc(OCC(=O)N3CCCCC3)cc2)c1, the AC50 [8] is reported as 39.8 µM (inconclusive).

For C/N=c1\scc(-c2ccc(OC)cc2)n1/N=C(\C)c1cccnc1, the EC50 [6] was > 30 µM (not active) and the EC50 [7] was 1.79 µM (active).

With C/C(Cn1cnc([N+](=O)[O-])n1)=N/NC(=O)COc1c(Cl)cc(Cl)cc1Cl the EC50 [6] was > 60 µM (not active) and the EC50 [7] was 0.143 µM (active).

With CCNc1nc(NCC)nc(N/N=C/c2ccc(O)c(O)c2)n1 the IC50 [4] was 45.5 µM (active).

In the case of O=C(N/N=C/c1ccc(Cl)c([N+](=O)[O-])c1)c1cc(-c2ccccc2)nc2ccccc12, the AC50 [5] is reported as 2.08 µM (active).

In the case of C/C(=C\C(=O)c1ccccc1)Nc1ccc(N2CCOCC2)cc1, the EC50 [6] is reported as > 60 µM (not active) and the EC50 [7] is reported as 6.78 µM (active).

With CCOc1cc(/C=N/NC(=O)c2cc(C)[nH]n2)ccc1OC(=O)c1ccc([N+](=O)[O-])cc1 the AC50 [8] was 1.78 µM (inconclusive), the AC50 [1] was 22.4 µM (inconclusive) and the AC50 [2] was “inconclusive”.

With Brc1ccc(OCCn2ccnc2)cc1 the EC50 [6] was > 60 µM (not active) and the EC50 [7] was 3.15 µM (active).

For CC(C)CC(=O)c1c(O)c(C=O)c(O)c2c1O[C@@]1(C)[C@@H](C2)C[C@H]2C[C@@H]1C2(C)C [EUGLOBAL G1], the AC50 [5] was 2.68 µM (active).

In the case of Cc1nc2c([nH]1)c(=O)n(C)c(=O)n2Cc1ccco1 [FURAFYLLINE], the AC50 [2] is reported as “inconclusive”.
